Measured values from US10913871B2, “Ink composition, method for producing the same, and image-forming method” (FUJIFILM CORPORATION, priority 2017, dated 2021).

Assay: Solubility in water of specified hydrophobic compound or comparative compound
Type: physicochemical
Settings: water at 25° C.
Method: Specifically, a Erlenmeyer flask is charged with 20 g of the test substance and 80 g of water, and shaken at 25° C. for 24 hours. The resultant solution is filtered through a 5 μm membrane filter, to obtain filtrate. The obtained filtrate (5 g) is evaporated to dryness at 100° C. for 3 hours. From the mass of the residual, the content (mass %) of the test substance dissolved in the filtrate relative to the total amount of the filtrate is calculated. The calculated content (mass %) is defined as the solubility in water of the test substance.
Specifically, an Erlenmeyer flask is charged with 100 g of water; while the internal temperature is maintained at 25° C., the test substance is gradually dropped. The dropping is ended when visual observation finds cloudiness in the liquid within the Erlenmeyer flask. The mass (mass %) of the test substance dropped until the end of the dropping relative to the total mass of the liquid within the Erlenmeyer flask is defined as the solubility in water of the test substance.

Solubility in water, <1 mass %:
CCCCCCCCCCC(CO)CCCCCCCC (stereo not drawn) [2-Octyldodecanol]
CCCCCCCCCCCCCCCCCC(=O)OC [EXCEPARL MS]
CCCCCCCCCCCCCCCCCCCCCCO [Example 1-Docosanol, 1-Docosanol]
CCCCCCCCCCCCCCCCCCCCO [Example 1-Eicosanol, 1-Eicosanol]
CCCCCCCCO [Example 1-Octanol, 1-Octanol]
CCCCCCCCCCCCCCCCCCO [Stearyl alcohol]
